{"source": "paper PMC7799360", "about": "“Reprogramming immunosuppressive myeloid cells facilitates immunotherapy for colorectal cancer” (EMBO Molecular Medicine, 2020)", "key": {"BB1": {"biological_target": "T1, BB1 (Homo sapiens, UniProt P28336)", "T1 construct": "Pharmaron (Beijing, China), contract laboratory", "T1 sequence (P28336 whole entry)": "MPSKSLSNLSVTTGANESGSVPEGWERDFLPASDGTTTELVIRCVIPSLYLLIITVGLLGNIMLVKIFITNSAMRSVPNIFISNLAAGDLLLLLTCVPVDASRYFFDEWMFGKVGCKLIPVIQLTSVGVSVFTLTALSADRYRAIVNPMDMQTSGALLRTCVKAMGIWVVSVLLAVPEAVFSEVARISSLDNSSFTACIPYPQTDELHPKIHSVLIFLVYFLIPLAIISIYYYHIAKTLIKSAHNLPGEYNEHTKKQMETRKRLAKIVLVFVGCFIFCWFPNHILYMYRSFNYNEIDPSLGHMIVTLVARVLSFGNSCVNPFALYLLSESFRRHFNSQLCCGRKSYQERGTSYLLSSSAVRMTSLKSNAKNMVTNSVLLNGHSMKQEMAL", "test": "GPCR calcium flux assay", "assay_type": "cell-based", "conditions": "read-out: Known agonists EC50"}, "HTR2B": {"biological_target": "T2, HTR2B (Homo sapiens, UniProt P41595)", "T2 construct": "Pharmaron (Beijing, China), contract laboratory", "T2 sequence (P41595 whole entry, species assumed)": "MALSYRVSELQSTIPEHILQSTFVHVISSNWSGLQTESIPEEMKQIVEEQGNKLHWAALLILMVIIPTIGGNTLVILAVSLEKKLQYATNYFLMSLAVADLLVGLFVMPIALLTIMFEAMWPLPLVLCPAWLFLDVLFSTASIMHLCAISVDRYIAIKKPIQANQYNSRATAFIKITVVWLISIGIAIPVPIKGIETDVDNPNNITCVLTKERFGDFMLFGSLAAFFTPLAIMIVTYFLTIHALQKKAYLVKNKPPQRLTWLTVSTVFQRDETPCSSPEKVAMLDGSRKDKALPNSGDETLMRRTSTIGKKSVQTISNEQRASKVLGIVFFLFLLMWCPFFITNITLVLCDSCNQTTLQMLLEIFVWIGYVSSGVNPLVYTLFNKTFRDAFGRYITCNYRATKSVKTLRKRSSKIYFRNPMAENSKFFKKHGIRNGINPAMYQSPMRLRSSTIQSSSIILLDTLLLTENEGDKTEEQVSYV", "test": "GPCR calcium flux assay", "assay_type": "cell-based"}, "AT1": {"biological_target": "T3, AT1 (Homo sapiens, UniProt P30556)", "T3 construct": "Pharmaron (Beijing, China), contract laboratory", "T3 sequence (P30556 whole entry)": "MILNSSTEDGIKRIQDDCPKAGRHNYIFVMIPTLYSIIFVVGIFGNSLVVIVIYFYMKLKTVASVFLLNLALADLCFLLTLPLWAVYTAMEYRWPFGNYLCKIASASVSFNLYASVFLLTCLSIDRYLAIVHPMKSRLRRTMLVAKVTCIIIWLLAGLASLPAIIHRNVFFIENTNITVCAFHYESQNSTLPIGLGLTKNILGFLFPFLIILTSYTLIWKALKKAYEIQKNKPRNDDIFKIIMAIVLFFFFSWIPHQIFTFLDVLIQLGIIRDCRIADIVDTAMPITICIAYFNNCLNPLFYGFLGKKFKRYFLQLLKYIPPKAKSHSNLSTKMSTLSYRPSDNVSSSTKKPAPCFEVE", "test": "GPCR calcium flux assay", "assay_type": "cell-based", "conditions": "read-out: Known agonists EC50"}, "OPRD1": {"biological_target": "T4, OPRD1 (Homo sapiens, UniProt P41143)", "T4 construct": "Pharmaron (Beijing, China), contract laboratory", "T4 sequence (P41143 whole entry, species assumed)": "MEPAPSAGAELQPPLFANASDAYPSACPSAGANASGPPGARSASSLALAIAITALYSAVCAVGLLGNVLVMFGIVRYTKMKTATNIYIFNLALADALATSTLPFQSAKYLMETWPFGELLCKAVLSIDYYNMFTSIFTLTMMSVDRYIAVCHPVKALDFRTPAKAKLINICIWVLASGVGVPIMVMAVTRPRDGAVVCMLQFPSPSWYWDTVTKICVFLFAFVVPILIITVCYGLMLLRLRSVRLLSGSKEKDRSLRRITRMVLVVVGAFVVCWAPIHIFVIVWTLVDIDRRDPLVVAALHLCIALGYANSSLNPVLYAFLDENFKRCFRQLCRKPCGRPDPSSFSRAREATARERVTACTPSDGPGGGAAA", "test": "GPCR calcium flux assay", "assay_type": "cell-based", "conditions": "read-out: Known agonists EC50"}, "CB2": {"biological_target": "CB2 (Homo sapiens, UniProt P34972)", "sequence (P34972 whole entry, species assumed)": "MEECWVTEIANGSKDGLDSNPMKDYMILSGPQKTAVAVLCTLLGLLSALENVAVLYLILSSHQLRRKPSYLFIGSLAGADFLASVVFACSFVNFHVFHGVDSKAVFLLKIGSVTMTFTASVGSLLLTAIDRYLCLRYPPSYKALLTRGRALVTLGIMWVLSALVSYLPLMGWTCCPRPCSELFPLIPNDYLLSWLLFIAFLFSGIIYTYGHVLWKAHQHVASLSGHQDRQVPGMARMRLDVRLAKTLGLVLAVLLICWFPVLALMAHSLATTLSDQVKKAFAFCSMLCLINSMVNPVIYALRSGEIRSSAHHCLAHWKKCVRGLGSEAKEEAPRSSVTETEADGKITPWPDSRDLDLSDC", "test": "LANCE Ultra cAMP assay", "conditions": "read-out: IC50 (known antagonists, TP-16); CB2"}, "HTR1B": {"biological_target": "HTR1B (Homo sapiens, UniProt P28222)", "sequence (P28222 whole entry)": "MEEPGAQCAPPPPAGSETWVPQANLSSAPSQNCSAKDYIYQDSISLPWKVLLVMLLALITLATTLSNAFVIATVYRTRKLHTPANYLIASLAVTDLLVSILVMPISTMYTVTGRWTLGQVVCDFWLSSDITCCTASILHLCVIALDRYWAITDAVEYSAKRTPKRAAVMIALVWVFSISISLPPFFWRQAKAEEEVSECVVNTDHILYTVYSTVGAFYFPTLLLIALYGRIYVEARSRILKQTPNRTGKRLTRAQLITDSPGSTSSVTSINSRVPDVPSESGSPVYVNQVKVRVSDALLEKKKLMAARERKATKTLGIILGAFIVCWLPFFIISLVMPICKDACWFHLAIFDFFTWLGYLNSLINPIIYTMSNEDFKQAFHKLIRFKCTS", "test": "LANCE Ultra cAMP assay"}}, "note": "Structures can show the parent of a compound that is named as a salt. Where no end group is shown, it is not given here."}
{"molecule": "CSCC[C@H](NC(=O)[C@H](Cc1ccccc1)NC(=O)[C@H](Cc1c[nH]cn1)NC(=O)CNC(=O)[C@@H](NC(=O)[C@H](C)NC(=O)[C@H](Cc1c[nH]c2ccccc12)NC(=O)[C@H](CC(C)C)NC(=O)[C@H](CC(N)=O)NC(=O)CN)[C@@H](C)O)C(N)=O", "note": "[Neuromedin B, reference compound]", "values": [{"measurement": "EC50", "setting": "BB1", "result": 0.2, "unit": "nM"}]}
{"molecule": "Cc1nc2sccn2c(=O)c1CCN1CCC(=C(c2ccc(F)cc2)c2ccc(F)cc2)CC1", "note": "[Ritanserin, reference compound]", "values": [{"measurement": "IC50", "setting": "HTR2B", "result": 30.8, "unit": "nM"}]}
{"molecule": "DRVYVHPF [Angiotensin II 5-valine]", "values": [{"measurement": "EC50", "setting": "AT1", "result": 0.2, "unit": "nM"}]}
{"molecule": "CCN(CC)C(=O)c1ccc(C2=CC3(CCNCC3)Oc3cccc(O)c32)cc1", "note": "[ADL-5859, reference compound]", "values": [{"measurement": "EC50", "setting": "OPRD1", "result": 266, "unit": "nM"}]}
{"molecule": "COc1ccc(C(=O)c2c(C)n(CCN3CCOCC3)c3cc(I)ccc23)cc1", "note": "[AM630, reference compound]", "values": [{"measurement": "IC50", "setting": "CB2", "result": 260, "unit": "nM"}]}
{"molecule": "CN(C)CCCc1cc(C(=O)Nc2ccc(-c3ccncc3)cc2)ccc1O", "note": "[GR 55562 dihydrochloride]", "values": [{"measurement": "IC50", "setting": "HTR1B; read-out: IC50 (known antagonists, TP-16), HTR1B", "result": 35, "unit": "nM"}]}
{"molecule": "COc1ccc2[nH]cc(C3=CCNCC3)c2c1", "note": "[RU24969]", "values": [{"measurement": "EC50", "setting": "HTR1B", "result": 18, "unit": "nM"}]}
